Legend:
2E9 MAb [1] = test: Indirect competitive ELISA measuring equilibrium association constant and association/dissociation rates of MAb-hapten complexes; assay type: binding, mouse; settings: for KA times higher than KA measured for the 4-OHE2-1-N3Ade adduct: comparator 4-OHE2-1-N3Ade; for KA higher by a factor than that obtained for NAcCys: comparator NAcCys; for 1/koff: dissociation time; for Association rate, kon / Dissociation rate, koff / Association constant, KA: in the presence of 2E9 MAb, indirect competitive ELISA; for Association constant, KA: equilibrium; for KA times smaller than the KA obtained for 4-OHE1-2-NAcCys: comparator 4-OHE1-2-NAcCys
Procedure: The equilibrium constant and the kinetic off- and on-rates for the analyte and the reporter molecule of interest must be known. The equilibrium association constants (KA) and association (kon)/dissociation (koff) rates for 4-OHE2-2-NAcCys and 4-OHE2-2-NAcCys-SAMSA conjugates are given in Table I, which also provides information on other closely related analytes, such as 4-OHE2, NAcCys, and 4-OHE2-1-N3Ade adduct. All values listed in Table I were determined using an indirect competitive ELISA. The value of KA for 4-OHE2-2-NAcCys-SAMSA was confirmed by an equilibrium dialysis method.
An ELISA was used to measure the association/dissociation rate constants of MAb-hapten (i.e., MAb-4-OHE1-2-NAcCys) and/or association/dissociation rate constants of related analytes. The MAb and suitable hapten(s) were mixed in solution to initiate the equilibrium reaction. At different time intervals, the amount of the free MAb in the reaction mixture was determined by an indirect ELISA. The association rate constants for 4-OHE1-2-NAcCys, 4-OHE1, NAcCys, and 4-OHE1-1-N3Ade were estimated by nonlinear regression against an equation introduced from the derivation of the mass balance of MAb-antigen/related analyte interaction (Zhuang et al., J Biosci. Bioeng. 92, 330-336 (2001); Foote et al., Proc. Natl. Acad. Sci. USA 92, 1254-1256 (1995); Goldbaum et al., J Immunol. 162, 6040-6045 (1999); Northrup et al., Proc. Natl. Acad. Sci. USA 89, 3338-3342 (1992)).
To determine the bound fraction of the antibody by ELISA, 3 rows and 8 columns of the microtiter plate were incubated with sufficient concentration of antigen to saturate the wells. After washing the plate with PBS 3 times, 4 rows of the plate including 3 rows coated with the antigen were blocked with 1% non-fat dried milk, 0.01% Triton-X100 in PBS for 3 hrs. Then the plate was washed with PBS with Triton-X100 (0.01%) 3 times. Equal volumes (160 μL) of the antigen (or related analyte) and PBS were mixed, and the mixture was put into the first well of the row that was blocked but not coated with the antigen (non-coated row).
The average absorbance of this column (Ab) measured in the last step of the ELISA corresponds to the blank. Equal volumes (160 μL) of the antibody solution and PBS were mixed, and the mixture was put into the last (8th) well of the non-coated row. The average absorbance of this column (Ao) corresponds to the total concentration of the antibody. Equal volumes of the antibody solution and antigen (or related analyte) solution were mixed quickly, and the mixture was immediately put into the second well of the non-coated row. At appropriate time intervals (after 10, 20, 23, 26 and 28 min), a new mixture of the antibody and hapten (or related analyte) solution were mixed quickly, immediately put into the wells of the non-coated row from the […]. The average absorbance of these columns (At) corresponds to the concentration of the free antibody at t=30, 20, 10, 7, 4 and 2 min for the […], respectively. Two min after the 7th well was filled with the mixture, using an eight-channel Pipetman, the mixtures on the row were quickly dispensed into the 3 rows that were coated with the antigen (or related analyte, 50 μL each). After 1 min the mixture was discarded and the plate was washed with PBS with Triton-X100 (0.01%) 3 times. The secondary antibody solution (HRP-conjugated) was added to the plate (50 μL), and the plate was incubated at 37° C. for 1 h. After washing with PBS and Triton-X100 (0.01%) 3 times, the substrate was added to the plate (50 μL). After incubation for 10 min at room temperature, the absorbance at 405 nm was measured.
Association constants KA for 4-OHE1 and NAcCys were also determined and are 2.5·10^5 and 2.1·10^6 M^−1, respectively. […] When the time required for the equilibrium reaction between the antigen and the antibody is shorter, one can detect or quantify the hapten faster. […]

[2] = tested on: MAb against 4-OHE2-1-N3Ade; test: Association constant of the MAb developed against 4-OHE2-1-N3Ade; assay type: binding
2E9 MAb [3] = test: Competitive ELISA for 4-OHE1-2-NAcCys: inhibition of 2E9 MAb binding to immobilized antigen; design: species or system mouse; settings: for IC50: wells coated with OA-4-OHE1(E2)-2-NAcCys-16a,β-MCC, regression analysis, read-out: I50 (quantity producing 50% inhibition of MAb binding in the ELISA)
Procedure: FIG. 5 is a diagram depicting inhibition profiles obtained for 4-OHE1-2-NAcCys (curve 1); NAcCys (curve 2), 4-OHE1(E2) (curve 3), and 4-OHE1-1-N3Ade (curve 4) using the 2E9 MAb in the competitive ELISA assay. Competitor-mediated reduction of MAb binding was expressed as % inhibition vs. untreated MAb and then plotted as a function of log quantity of competitor per well of the ELISA plate.
Wells were coated with OA-40HE1(E2)-2-NAcCys-16a,β-MCC, 500 ng/mL, 50 μL/well overnight, and blocked with 1% non-fat dried milk, 0.01% Triton-X100 in PBS for 2 h at 37° C. Competition curves were generated as described below. MAb and competitor molecules 4-OHE1(E2)-2-NAcCys (1), NAcCys (2), 4-OHE1(E2) (3), and 4-OHE1(E2)-1-N3Ade (4) were added to the wells at the same time and allowed to react with immobilized antigen for one hour before secondary antibody was added. The plates were washed with PBS with Triton-X100 (0.01%). Secondary antibody labeled with horseradish peroxidase (HRP) was used according to manufacturer's (BRL, Inc.) recommendations and incubated at 37° C. for 1 h. Plates were washed again, 2,2′-azino-bis(3-ethylbenzthiazoline-6-sulfonic acid) (ABTS) was added, and the plates were read at 405 nm on a BioRad-EL800 plate reader. The specificity of the 2E9 MAb raised against 4-OHE1(E2)-2-NAcCys was confirmed, and cross-reactivity to a number of related compounds was established.
The results are shown in FIG. 5, where the competitor-mediated reduction of MAb binding is expressed as % inhibition versus untreated MAb and plotted as a function of the concentration of competitor in the wells of the ELISA plate. Inhibition curves were developed for several analytes of interest; the I50's (quantity producing 50% inhibition of MAb binding in the ELISA) of these analytes were determined by regression analysis. […] For example, the I50 of 4-OHE-1-N3Ade (I50=1.5·10^−5M) was about 2700 times higher than the I50 of the 4-OHE1-2-NAcCys (I50=5.6·10^−9M).

Compound	1/koff (2E9 MAb [1]; 2E9 MAb)	Association rate, kon (2E9 MAb [1])	Dissociation rate, koff (2E9 MAb [1])	Association constant, KA (2E9 MAb [1])	KA times smaller than the KA obtained for 4-OHE1-2-NAcCys (2E9 MAb [1]; 2E9 MAb)	other results
CC(=O)N[C@@H](CSc1cc2c(c(O)c1O)CC[C@@H]1[C@@H]2CC[C@]2(C)[C@@H](O)CC[C@@H]12)C(=O)O [4-OHE2-NAcCys, 4-OHE2-2-NAcCys]	391 s	460000 M⁻¹ s⁻¹	0.0026 s⁻¹	1.8e+08 M⁻¹	–	dissociation time 1/koff (2E9 MAb [1]; 2E9 MAb): ~6.5 min; KA times higher than KA measured for the 4-OHE2-1-N3Ade adduct (2E9 MAb [1]; 2E9 MAb): about 2,700; KA higher by a factor than that obtained for NAcCys (2E9 MAb [1]; 2E9 MAb): 100; Association constant, KA (2E9 MAb [1]; listed as 4-OHE2-2-NAcCys): 1.8e+08 M⁻¹
C[C@]12CC[C@@H]3c4c(-n5cnc(=N)c6[nH]cnc65)cc(O)c(O)c4CC[C@H]3[C@@H]1CC[C@@H]2O [4-OHE2-1-N3Ade]	10 s	6500 M⁻¹ s⁻¹	0.097 s⁻¹	67000 M⁻¹	–	KA [2]: 2e+08 M⁻¹
C[C@]12CC[C@@H]3c4c(-n5cnc(=N)c6[nH]cnc65)cc(O)c(O)c4CC[C@H]3[C@@H]1CCC2=O [4-OHE1-1-N3Ade]	–	–	–	–	2700	I50 times higher than the I50 of 4-OHE1-2-NAcCys (2E9 MAb [3]; comparator 4-OHE1-2-NAcCys): about 2700; IC50 (2E9 MAb [3]): 15 µM; Association constant, KA (2E9 MAb [1]; listed as 4-OHE1-N3Ade): 67000 M⁻¹
CC(=O)NC(CSc1cc2c(c(O)c1O)CCC1C2CCC2(C)C(=O)CCC12)C(=O)O (stereo not drawn) [4-OHE1-2-NAcCys]	–	–	–	–	–	IC50 (2E9 MAb [3]): 0.0056 µM
C[C@]12CC[C@@H]3c4ccc(O)c(O)c4CC[C@H]3[C@@H]1CCC2=O [4-OHE1]	–	–	–	250000 M⁻¹	about 720	–
4-OHE2-2-NAcCys-SAMSA [4-OHE2-NAcCys-SAMSA]	185 s	270000 M⁻¹ s⁻¹	0.0054 s⁻¹	5e+07 M⁻¹	–	–
4-OHE1(E2)-2-NAcCys	–	–	–	1.8e+08 M⁻¹	–	KA times higher than KA measured for the 4-OHE2-1-N3Ade adduct (2E9 MAb [1]; 2E9 MAb): about 2,700; KA higher by a factor than that obtained for NAcCys (2E9 MAb [1]; 2E9 MAb): 100
C[C@]12CC[C@@H]3c4ccc(O)c(O)c4CC[C@H]3[C@@H]1CC[C@@H]2O [4-OHE2]	17 s	15000 M⁻¹ s⁻¹	0.062 s⁻¹	250000 M⁻¹	–	–
CC(=O)N[C@@H](CS)C(=O)O [NAcCys, N-acetylcysteine]	27 s	77000 M⁻¹ s⁻¹	0.037 s⁻¹	2.1e+06 M⁻¹	~86	–
